The supplement of paper PMC8967900

Columns and labels:
Assay in all cases: selective drug sensitivity score (sDSS, relative to normal bone marrow) (sDSS (score)); higher = more potent and effective on the cell line relative to normal bone marrow cells
Conditions in all cases: 72 h
P12-ICHIKAWA = test system: P12-ICHIKAWA
NALM-16 = test system: NALM-16
COG-LL-394h = test system: COG-LL-394h
RCH-ACV = test system: RCH-ACV
ALL-SIL = test system: ALL-SIL
PF-382 = test system: PF-382
HPB-ALL = test system: HPB-ALL
RPMI-8402 = test system: RPMI-8402
NALM-6 = test system: NALM-6
380 = test system: 380
MOLT-14 = test system: MOLT-14
COG-LL-402h = test system: COG-LL-402h
DND-41 = test system: DND-41
COG-LL-332h = test system: COG-LL-332h
KASUMI-2 = test system: KASUMI-2
KARPAS-45 = test system: KARPAS-45
MOLT-4 = test system: MOLT-4
CCRF-CEM = test system: CCRF-CEM
KASUMI-10 = test system: KASUMI-10
MHH-CALL-3 = test system: MHH-CALL-3
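Also: ALL cell lines in 384-well plates, five doses spanning 10,000-fold, each plate scaled between vehicle and 100 µmol/L benzalkonium chloride controls, sDSS an adapted area-under-curve metric.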

Structure (SMILES)	selective drug sensitivity score (P12-ICHIKAWA)	selective drug sensitivity score (NALM-16)	selective drug sensitivity score (COG-LL-394h)	selective drug sensitivity score (RCH-ACV)	selective drug sensitivity score (ALL-SIL)	selective drug sensitivity score (PF-382)	selective drug sensitivity score (HPB-ALL)	selective drug sensitivity score (RPMI-8402)	selective drug sensitivity score (NALM-6)	selective drug sensitivity score 380	selective drug sensitivity score (MOLT-14)	selective drug sensitivity score (COG-LL-402h)	selective drug sensitivity score (DND-41)	selective drug sensitivity score (COG-LL-332h)	selective drug sensitivity score (KASUMI-2)	selective drug sensitivity score (KARPAS-45)	selective drug sensitivity score (MOLT-4)	selective drug sensitivity score (CCRF-CEM)	selective drug sensitivity score (KASUMI-10)	selective drug sensitivity score (MHH-CALL-3)
CNC(=O)c1ccccc1Sc1ccc2c(/C=C/c3ccccn3)n[nH]c2c1 [Axitinib] (top concentration 10000 nM)	12.1	-2.34	2.96	11.1	20.1	6.96	7.56	6.06	7.86	1.56	8.56	5.86	0.16	13.3	6.56	6.36	12.2	9.26	1.86	-2.44
Cc1c(N)nc([C@H](CC(N)=O)NC[C@H](N)C(N)=O)nc1C(=O)N[C@H](C(=O)N[C@H](C)[C@@H](O)[C@H](C)C(=O)N[C@H](C(=O)NCCc1nc(-c2nc(C(=O)NCCC[S+](C)C)cs2)cs1)[C@@H](C)O)[C@@H](O[C@@H]1O[C@@H](CO)[C@@H](O)[C@H](O)[C@@H]1O[C@H]1O[C@H](CO)[C@@H](O)[C@H](OC(N)=O)[C@@H]1O)c1c[nH]cn1 [Bleomycin] (top concentration 10000 nM)	-0.56	-1.86	2.24	7.54	-1.36	1.94	-1.86	-1.36	5.74	4.34	0.94	2.84	1.14	8.04	6.44	1.94	2.24	1.04	1.14	4.14
CC(C)C[C@H](NC(=O)[C@H](Cc1ccccc1)NC(=O)c1cnccn1)B(O)O [Bortezomib] (top concentration 1000 nM)	2.22	2.32	2.42	3.42	4.72	1.82	5.22	2.72	1.82	1.42	1.52	1.32	6.02	4.22	1.42	1.42	2.22	6.52	2.92	2.72
CCC/C=C/C=C/C(=O)O[C@H]1/C(=C/C(=O)OC)C[C@H]2C[C@H]([C@@H](C)O)OC(=O)C[C@H](O)C[C@@H]3C[C@H](OC(C)=O)C(C)(C)[C@](O)(C[C@@H]4C/C(=C/C(=O)OC)C[C@H](/C=C/C(C)(C)[C@]1(O)O2)O4)O3 [Bryostatin_1] (top concentration 100 nM)	1.68	-6.92	-5.92	-7.12	-7.12	4.18	-7.12	-4.52	-7.12	-7.12	-7.12	-5.72	0.88	-7.12	-7.12	-7.12	-7.12	-7.12	6.78	-7.12
CO[C@H]1CC[C@H](N2C(=O)CNc3ncc(-c4ccc(C(C)(C)O)nc4)nc32)CC1 [CC-223] (top concentration 10000 nM)	1.92	0.72	-2.28	9.62	1.32	1.42	-0.28	0.62	1.42	13	0.62	2.92	1.32	1.92	7.92	2.22	-0.48	4.42	-1.38	8.82
CN(C)c1cc2c(cc1Sc1nc3c(N)nccc3n1CCNCC(C)(C)C)OCO2 [CUDC-305] (top concentration 10000 nM)	2.82	1.12	-1.28	4.02	3.02	3.82	4.42	1.42	4.72	3.22	5.12	3.92	5.92	3.82	-0.28	5.02	6.02	3.32	3.52	-11.7
CO[C@H]1C(=O)[C@]2(C)[C@@H](OC)C[C@H]3OC[C@@]3(OC(C)=O)[C@H]2[C@H](OC(=O)c2ccccc2)[C@]2(O)C[C@H](OC(=O)[C@H](O)[C@@H](NC(=O)OC(C)(C)C)c3ccccc3)C(C)=C1C2(C)C [Cabazitaxel] (top concentration 1000 nM)	3.08	11.4	6.08	22.9	19.3	10.9	11.6	15.5	15.9	25.7	22.7	17.1	-4.32	22.1	17.5	18.9	18.4	20.5	12.4	6.78
C=CC(=O)Nc1cc2c(Nc3ccc(F)c(Cl)c3)ncnc2cc1OCCCN1CCOCC1 [Canertinib] (top concentration 10000 nM)	-1.54	-0.14	1.56	1.26	5.16	-0.54	0.76	-1.54	-1.34	3.16	-0.04	4.86	1.36	1.86	1.86	-0.24	-2.14	1.56	4.66	12.6
CC(C)C[C@H](NC(=O)[C@H](CCc1ccccc1)NC(=O)CN1CCOCC1)C(=O)N[C@@H](Cc1ccccc1)C(=O)N[C@@H](CC(C)C)C(=O)[C@@]1(C)CO1 [Carfilzomib] (top concentration 1000 nM)	1.26	-3.64	0.26	0.86	1.66	1.86	3.96	-2.74	1.06	0.06	1.16	2.86	5.36	5.16	-0.04	0.66	0.86	4.86	0.36	2.86
O=C(c1ccc(F)c(F)c1Nc1ccc(I)cc1F)N1CC(O)([C@@H]2CCCCN2)C1 [Cobimetinib] (top concentration 1000 nM)	-1.88	-1.38	-2.48	-3.68	-2.98	-3.28	-3.68	-3.68	2.62	0.82	5.22	-0.98	2.62	-3.08	4.22	-3.68	-3.68	-3.58	-3.68	6.22
COc1c(OCCCN2CCOCC2)ccc2c1N=C(NC(=O)c1cnc(N)nc1)N1CCN=C21 [Copanlisib] (top concentration 1000 nM)	-0.42	2.58	-0.82	22.2	0.38	2.58	0.48	2.58	8.18	14.4	-3.92	8.88	-2.72	2.78	4.18	3.38	4.48	10.2	-1.32	-0.62
Cn1c(=O)n(-c2ccc(C(C)(C)C#N)cc2)c2c3cc(-c4cnc5ccccc5c4)ccc3ncc21 [Dactolisib] (top concentration 1000 nM)	4.76	0.86	-3.94	21.3	4.96	9.36	1.36	7.76	6.36	17.5	0.36	5.36	5.66	5.96	9.06	6.56	5.76	12.9	-1.04	3.26
O=C(/C=C/c1cccnc1)NCCCCC1CCN(C(=O)c2ccccc2)CC1 [Daporinad] (top concentration 1000 nM)	9.16	2.96	-4.44	19.5	9.46	18.4	7.96	16.3	15.6	14.7	4.66	16.4	19.9	17	8.66	18.4	5.86	8.56	12.1	14.6
CC(=O)N(O)CCCCCNC(=O)CCC(=O)N(O)CCCCCNC(=O)CCC(=O)N(O)CCCCCN [Deferoxamine] (top concentration 10000 nM)	3.66	4.66	0.76	3.86	3.56	4.66	4.06	2.06	5.06	1.96	8.76	5.76	5.16	10.4	-0.74	5.16	3.56	6.86	3.06	-0.54
Cc1cc(Nc2cc(N3CCN(C)CC3)nc(/C=C/c3ccccc3)n2)n[nH]1 [ENMD-2076] (top concentration 10000 nM)	8.24	-0.06	1.44	8.84	8.94	1.34	4.44	1.44	5.44	2.54	6.64	4.24	-0.46	4.34	-4.76	5.14	5.74	5.04	9.14	-2.76
Cc1cnc(Nc2ccc(OCCN3CCCC3)cc2)nc1Nc1cccc(S(=O)(=O)NC(C)(C)C)c1 [Fedratinib] (top concentration 10000 nM)	-2.56	-2.16	0.14	-1.06	0.84	-3.06	0.14	-2.16	-1.26	-6.96	-0.06	1.24	3.94	-2.26	-6.16	0.04	-2.86	-1.76	4.94	2.54
COc1ccc(-c2nc(N3CCOCC3)c3sc(CN(C)c4ncc(C(=O)NO)cn4)cc3n2)cn1 [Fimepinostat (CUDC-907)] (top concentration 10000 nM)	5.18	1.78	3.28	10.9	8.98	2.58	-4.02	5.28	8.68	10.3	9.18	10.9	4.68	1.08	8.88	9.58	5.28	6.88	9.18	10.9
